Measured values published in patent US10385024B2, “Compounds and methods for inhibiting NHE-mediated antiport in the treatment of disorders associated with fluid retention or salt overload and gastrointestinal tract disorders” (Ardelyx, Inc., priority 2012, dated 2019).

Legend:
[1] = human absorption data, from Ertl et al., J. Med. Chem., 2000; cited from earlier work
[2] = target: T1, Rat NHE-3 (Rattus norvegicus, UniProt P26433); assay: Cell-based assay of NHE-3 activity (persistent inhibition, after washout); details: OK cells with rat NHE-3 gene, 60 min incubation, recovery initiated 40 min after compound washout; for IC50: read-out: Rat NHE3 pIC50 (persistent) (converted)
T1 construct: expressed in transfected cells; host or cells: Opossum kidney (OK) cells (ATCC), transfected by electroporation
T1 sequence (P26433 29-831): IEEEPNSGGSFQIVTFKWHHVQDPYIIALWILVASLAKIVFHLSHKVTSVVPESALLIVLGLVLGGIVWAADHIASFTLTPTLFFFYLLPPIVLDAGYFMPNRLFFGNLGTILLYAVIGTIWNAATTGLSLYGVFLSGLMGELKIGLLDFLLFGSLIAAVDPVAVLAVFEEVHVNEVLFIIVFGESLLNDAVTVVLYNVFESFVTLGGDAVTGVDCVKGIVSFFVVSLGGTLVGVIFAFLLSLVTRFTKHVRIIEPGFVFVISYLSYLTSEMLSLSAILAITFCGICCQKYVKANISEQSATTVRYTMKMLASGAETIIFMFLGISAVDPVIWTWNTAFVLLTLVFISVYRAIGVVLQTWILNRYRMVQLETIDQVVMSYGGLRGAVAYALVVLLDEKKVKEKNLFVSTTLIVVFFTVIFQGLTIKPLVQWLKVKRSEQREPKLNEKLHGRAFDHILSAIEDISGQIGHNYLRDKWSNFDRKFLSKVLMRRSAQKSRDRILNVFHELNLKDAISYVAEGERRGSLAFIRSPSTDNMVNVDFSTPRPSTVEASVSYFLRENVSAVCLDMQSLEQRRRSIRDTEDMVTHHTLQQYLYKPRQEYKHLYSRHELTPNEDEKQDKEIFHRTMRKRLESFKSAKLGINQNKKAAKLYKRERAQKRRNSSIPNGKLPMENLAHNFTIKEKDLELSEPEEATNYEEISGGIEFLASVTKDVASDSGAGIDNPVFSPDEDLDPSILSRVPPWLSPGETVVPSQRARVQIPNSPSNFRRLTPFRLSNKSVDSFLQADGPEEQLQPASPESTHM
In short: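 OK cells transiently expressing rat NHE-3 were exposed to 0-30 μM compound in NaCl-HEPES pH 7.4 for 60 min, then washed free of drug before NH4Cl/BCECF-AM loading and acid-loading in Na+-free choline buffer. Na+-dependent pH recovery rates (mean of ≥2 replicates) gave pIC50.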

[3] = target: T2, human NHE-3 (Homo sapiens, UniProt P48764); assay: Cell-based assay of NHE-3 activity (human NHE3 inhibition assay); details: OK cells with human NHE-3 gene, BCECF pH dye, 0-30 μM test compound; for IC50: read-out: Human NHE3 pIC50 (converted)
T2 construct: expressed in transfected cells; host or cells: Opossum kidney (OK) cells (ATCC), transfected by electroporation
T2 sequence (P48764 26-834): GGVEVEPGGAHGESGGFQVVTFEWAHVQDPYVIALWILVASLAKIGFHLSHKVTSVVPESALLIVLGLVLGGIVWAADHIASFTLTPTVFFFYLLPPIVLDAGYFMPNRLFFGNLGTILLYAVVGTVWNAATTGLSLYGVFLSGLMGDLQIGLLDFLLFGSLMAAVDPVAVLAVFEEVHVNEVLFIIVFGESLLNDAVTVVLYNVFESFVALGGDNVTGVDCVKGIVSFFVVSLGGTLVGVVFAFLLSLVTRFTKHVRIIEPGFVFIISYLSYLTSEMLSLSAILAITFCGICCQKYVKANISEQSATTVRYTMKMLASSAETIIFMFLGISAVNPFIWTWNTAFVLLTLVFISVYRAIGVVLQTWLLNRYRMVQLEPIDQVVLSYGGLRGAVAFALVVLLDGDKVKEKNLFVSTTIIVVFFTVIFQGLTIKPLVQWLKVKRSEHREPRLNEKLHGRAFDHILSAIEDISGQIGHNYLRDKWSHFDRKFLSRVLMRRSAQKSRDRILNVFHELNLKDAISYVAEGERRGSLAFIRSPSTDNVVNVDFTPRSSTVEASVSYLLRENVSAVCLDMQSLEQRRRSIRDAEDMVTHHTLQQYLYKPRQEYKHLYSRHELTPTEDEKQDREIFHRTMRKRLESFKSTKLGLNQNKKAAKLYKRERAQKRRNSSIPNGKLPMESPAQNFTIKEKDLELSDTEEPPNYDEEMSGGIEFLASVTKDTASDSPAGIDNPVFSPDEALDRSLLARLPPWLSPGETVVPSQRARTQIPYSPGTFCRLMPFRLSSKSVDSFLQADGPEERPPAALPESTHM
In short: (§1)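 Opossum kidney cells electroporated with rat or human NHE-3, loaded with 5 μM BCECF-AM in NH4Cl-HEPES pH 7.4 for 30 min at RT, then acidified 10 min in Na+-free choline HEPES. Na+-dependent pH recovery rates from BCECF fluorescence, averaged over ≥2 replicates, gave pIC50.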

[4] = tested on: absorption of sodium from the intestinal lumen; assay: Inhibition of intestinal sodium absorption (urinary sodium and fecal form); assay type: in vivo, Sprague-Dawley rats; details: rat; for response vs control in vivo at 3 mg/kg: 3 mg/kg oral gavage, urine 16 h post-dose, asterisks = significance vs vehicle (*P<0.05, **P<0.01, ***P<0.001), read-out: uNa (% of vehicle)
In short: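 Sprague-Dawley rats (8 weeks, n=6) dosed by oral gavage with compound or water vehicle (10 mL/kg) in late afternoon, then housed in metabolic cages. Over 16 h, urinary sodium measured by ion chromatography and expressed as % of vehicle mean; fecal form scored 1–5, averaged from two observations.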

[5] = target: T1, Rat NHE-3; assay: Cell-based assay of NHE-3 activity (rat NHE-3 prompt inhibition); details: OK cells with rat NHE-3 gene, compound present during pH recovery; for IC50: read-out: Rat NHE3 pIC50 (prompt) (converted)
In short: as §1

Compound: Cc1ccccc1N1C(=O)c2cc(S(N)(=O)=O)c(Cl)cc2NC1C (stereo not drawn) [metolazone]
- % FA [1]: 64%

Compound: O=C(O)c1cc(/N=N/c2ccc(S(=O)(=O)Nc3ccccn3)cc2)ccc1O [sulfasalazine]
- % FA [1]: 12%

Compound: CC(C)NCC(O)COc1cccc2[nH]ccc12 (stereo not drawn) [pindolol]
- % FA [1]: 92%

Compound: O=C(O)c1cc(/N=N/c2ccc(O)c(C(=O)O)c2)ccc1O [olsalazine]
- % FA [1]: 2.3%

Compound: C=CCc1ccccc1OCC(O)CNC(C)C (stereo not drawn) [alprenolol]
- % FA [1]: 96%

Compound: CCN1CCCC1CNC(=O)c1cc(S(N)(=O)=O)ccc1OC (stereo not drawn) [sulpiride]
- % FA [1]: 36%

Compound: OC[C@@H](O)[C@@H](O)[C@H](O)[C@H](O)CO [mannitol]
- % FA [1]: 26%

Compound: O=C(O)P(=O)(O)O [foscarnet]
- % FA [1]: 17%

Compound: OC[C@H]1O[C@@H](O[C@@H]2[C@@H](CO)OC(O)(CO)[C@H]2O)[C@H](O)[C@@H](O)[C@H]1O (mixture of isomers) [lactulose]
- % FA [1]: 0.6%

Compound: CC(=O)Nc1ccc(OCC(O)CNC(C)C)cc1 (stereo not drawn) [practolol]
- % FA [1]: 95%

Compound: C=CCOc1ccccc1OCC(O)CNC(C)C (stereo not drawn) [oxprenolol]
- % FA [1]: 97%

Compound: CN1Cc2c(Cl)cc(Cl)cc2[C@H](c2cccc(S(=O)(=O)NCCOCCOCCOCCNC(=O)CCC(N)(CCC(=O)NCCOCCOCCOCCNS(=O)(=O)c3cccc([C@@H]4CN(C)Cc5c(Cl)cc(Cl)cc54)c3)CCC(=O)NCCOCCOCCOCCNS(=O)(=O)c3cccc([C@@H]4CN(C)Cc5c(Cl)cc(Cl)cc54)c3)c2)C1 [Example 9, 4-amino-4-(1-(3-((S)-6,8-dichloro-2-methyl-1,2,3,4-tetrahydroisoquinolin-4-yl)phenylsulfonamido)-13-oxo-3,6,9-trioxa-12-azapentadecan-15-yl)-N^1,N^7-bis(2-(2-(2-(2-(3-((S)-6,8-dichloro-2-methyl-1,2,3,4-tetrahydroisoquinolin-4-yl)phenylsulfonamido)ethoxy)ethoxy)ethoxy)ethyl)heptanediamide]
- IC50 [2]: < 100 nM
- IC50 [3]: < 100 nM
- response vs control in vivo at 3 mg/kg [4]: < 35%
- IC50 [5]: < 100 nM

Compound: CN1Cc2c(Cl)cc(Cl)cc2[C@H](c2cccc(S(=O)(=O)NCCOCCOCCN(C)C(=O)CCC(N)(CCC(=O)N(C)CCOCCOCCNS(=O)(=O)c3cccc([C@@H]4CN(C)Cc5c(Cl)cc(Cl)cc54)c3)CCC(=O)N(C)CCOCCOCCNS(=O)(=O)c3cccc([C@@H]4CN(C)Cc5c(Cl)cc(Cl)cc54)c3)c2)C1 [Example 67]
- Rat NHE3 pIC50 (persistent) [2]: C (C NHE3 pIC50 > 7)
- Human NHE3 pIC50 [3]: C (C NHE3 pIC50 > 7)
- response vs control in vivo at 3 mg/kg [4]: > 75%
- Rat NHE3 pIC50 (prompt) [5]: C (C NHE3 pIC50 > 7)

Compound: CN1Cc2c(Cl)cc(Cl)cc2[C@H](c2cccc(S(=O)(=O)NCCOCCOCCNC(=O)CCC(CCC(=O)NCCOCCOCCNS(=O)(=O)c3cccc([C@@H]4CN(C)Cc5c(Cl)cc(Cl)cc54)c3)(CCC(=O)NCCOCCOCCNS(=O)(=O)c3cccc([C@@H]4CN(C)Cc5c(Cl)cc(Cl)cc54)c3)NC(=O)N(C)C)c2)C1 [Example 25]
- Rat NHE3 pIC50 (persistent) [2]: C (C NHE3 pIC50 > 7)
- Human NHE3 pIC50 [3]: B (B NHE3 pIC50 5-7)
- response vs control in vivo at 3 mg/kg [4]: < 35%
- Rat NHE3 pIC50 (prompt) [5]: B (B NHE3 pIC50 5-7)

Compound: CN1Cc2c(Cl)cc(Cl)cc2C(c2cccc(S(=O)(=O)NCCOCCOCCNC(=O)CCC(CCC(=O)NCCOCCOCCNS(=O)(=O)c3cccc(C4CN(C)Cc5c(Cl)cc(Cl)cc54)c3)(CCC(=O)NCCOCCOCCNS(=O)(=O)c3cccc(C4CN(C)Cc5c(Cl)cc(Cl)cc54)c3)NC(=O)N(C)CC(O)C(O)C(O)C(O)CO)c2)C1 (stereo not drawn) [Example 29]
- Rat NHE3 pIC50 (persistent) [2]: C (C NHE3 pIC50 > 7)
- Human NHE3 pIC50 [3]: C (C NHE3 pIC50 > 7)
- response vs control in vivo at 3 mg/kg [4]: 35 to 75%
- Rat NHE3 pIC50 (prompt) [5]: C (C NHE3 pIC50 > 7)

Compound: CN1Cc2c(Cl)cc(Cl)cc2[C@H](c2cccc(S(=O)(=O)NCCOCCOCCNC(=O)NCCN(CCNC(=O)NCCOCCOCCNS(=O)(=O)c3cccc([C@@H]4CN(C)Cc5c(Cl)cc(Cl)cc54)c3)CCNC(=O)NCCOCCOCCNS(=O)(=O)c3cccc([C@@H]4CN(C)Cc5c(Cl)cc(Cl)cc54)c3)c2)C1 [Example 53]
- Rat NHE3 pIC50 (persistent) [2]: C (C NHE3 pIC50 > 7)
- Human NHE3 pIC50 [3]: B (B NHE3 pIC50 5-7)
- response vs control in vivo at 3 mg/kg [4]: 35 to 75%
- Rat NHE3 pIC50 (prompt) [5]: B (B NHE3 pIC50 5-7)

Compound: OC[C@H]1O[C@H](OC[C@H]2O[C@H](O[C@]3(CO)O[C@H](CO)[C@@H](O)[C@@H]3O)[C@H](O)[C@@H](O)[C@@H]2O)[C@H](O)[C@@H](O)[C@H]1O [raffinose]
- % FA [1]: 0.3%

Compound: CN1Cc2c(Cl)cc(Cl)cc2[C@H](c2cccc(S(=O)(=O)NCCOCCOCCNC(=O)CCC(CCC(=O)NCCOCCOCCNS(=O)(=O)c3cccc([C@@H]4CN(C)Cc5c(Cl)cc(Cl)cc54)c3)(CCC(=O)NCCOCCOCCNS(=O)(=O)c3cccc([C@@H]4CN(C)Cc5c(Cl)cc(Cl)cc54)c3)NC(=O)N[C@@H](CC(=O)O)C(=O)O)c2)C1 [Example 12, (S)-2-(3-(1,25-bis(3-((S)-6,8-dichloro-2-methyl-1,2,3,4-tetrahydroisoquinolin-4-yl)phenylsulfonamido)-13-(3-(2-(2-(2-(3-((S)-6,8-dichloro-2-methyl-1,2,3,4-tetrahydroisoquinolin-4-yl)phenylsulfonamido)ethoxy)ethoxy)ethylamino)-3-oxopropyl)-10,16-dioxo-3,6,20,23-tetraoxa-9,17-diazapentacosan-13-yl)ureido)succinic acid]
- IC50 [2]: < 100 nM
- IC50 [3]: < 100 nM
- FFS ([4]; fecal form score, scale 1 (normal pellet) to 5 (liquid fecal streams), group average, 3 mg/kg oral, 16 h post-dose, vehicle = 1): 3
- response vs control in vivo at 3 mg/kg [4]: 35 to 75%
- IC50 [5]: < 100 nM

Compound: CN1Cc2c(Cl)cc(Cl)cc2[C@H](c2cccc(S(=O)(=O)N(C)CCOCCOCCNC(=O)NCCCN(CCCNC(=O)NCCOCCOCCN(C)S(=O)(=O)c3cccc([C@@H]4CN(C)Cc5c(Cl)cc(Cl)cc54)c3)CCCNC(=O)NCCOCCOCCN(C)S(=O)(=O)c3cccc([C@@H]4CN(C)Cc5c(Cl)cc(Cl)cc54)c3)c2)C1 [Example 54]
- Rat NHE3 pIC50 (persistent) [2]: C (C NHE3 pIC50 > 7)
- Human NHE3 pIC50 [3]: C (C NHE3 pIC50 > 7)
- response vs control in vivo at 3 mg/kg [4]: > 75%
- Rat NHE3 pIC50 (prompt) [5]: B (B NHE3 pIC50 5-7)

Compound: NC[C@H]1CC[C@H](C(=O)O)CC1 [tranexamic acid]
- % FA [1]: 55%
